Measurements reported in publication PMC6271626, “Design, Synthesis, and Biological Evaluation of Artemisinin-Indoloquinoline Hybrids as Potent Antiproliferative Agents” (Molecules, 2014).
Where “and” joins values, the source holds several entries; their conditions need not be identical. Equal entries are not always repeated. Structures can show the parent of a compound that is named as a salt. Where two headings read alike, the source gives them in different places.

Columns and labels:
[1] = tested on: normal mice fibroblast BALB/3T3; assay: Cytotoxicity against normal fibroblasts, SRB, BALB/3T3; type: cell-based, mouse; conditions: mean ± SD
Description: (§1) MV4-11 cells were cultured in the RPMI 1640 medium (IIET, Wroclaw) supplemented with 2 mM L-glutamine and 1.0 mM sodium pyruvate, 10% fetal bovine serum (all from Sigma Aldrich, Germany). HCT116 and A549 cells were cultured in the RPMI1640 + OptiMEM (50:50) medium (IIET, Wroclaw) supplemented with 2 mM L-glutamine and 5% fetal bovine serum (all from Sigma Aldrich, Germany), BALB/3T3 cells were cultured in Dulbecco medium (IIET, Wroclaw) supplemented with 2 mM L-glutamine and 1.0 mM sodium pyruvate, 10% fetal bovine serum (all from Sigma Aldrich, Germany). All culture medium was supplemented with 100 units/mL penicillin and […] streptomycin (both from Polfa, Tarchomin S.A., Warsaw, Poland). All cell lines were grown at 37 °C with 5% CO2 humidified atmosphere.
(§2) Test solutions of the compounds tested (1 mg/mL) were prepared by dissolving the substances in 100 μL of DMSO completed with 900 μL of tissue culture medium. Afterward, the tested compounds were diluted in culture medium to reach the final concentrations of 10, 1, 0.1, 0.01 μg/mL. Twenty four hours prior to the addition of the tested compounds, the cells were plated in 96-well plates (Sarstedt, Germany) at a density of 1 × 10^4 or 0.5× 10^4 (HCT116) cells per well. The assay was performed after 72 h of exposure to varying concentrations of the tested agents. The in vitro cytotoxic effect of all agents was examined using the MTT (for MV4-11 cell line) or SRB (for A549, HCT116 and BALB/3T3 cell lines) assay. The results were calculated as an IC50 (inhibitory concentration 50)–the dose of tested agent that inhibits proliferation of 50% of the cell population. Each compound in each concentration was tested in triplicate in a single experiment, which was repeated 3–5 times.

[2] = tested on: human leukemia MV4-11 cell line; assay: Antiproliferative assay in vitro, MTT, MV4-11; type: cell-based; conditions: mean ± SD
Description: as §1, §2

[3] = tested on: HCT116, human colon cancer cell line; assay: Antiproliferative assay in vitro, SRB, HCT116; type: cell-based; conditions: mean ± SD
Description: as §1, §2

[4] = tested on: A549, human non-small-cell lung adenocarcinoma cell line; assay: Antiproliferative assay in vitro, SRB, A549; type: cell-based; conditions: mean ± SD
Description: as §1, §2

[5] = tested on: human leukemia MV4-11 cell line; conditions: MV4-11 human leukemia cell line; cited from earlier work
[6] = tested on: A549, human non-small-cell lung adenocarcinoma cell line; set-up: method as in PMID 21207937; conditions: cited from earlier work
[7] = tested on: HCT116, human colon cancer cell line; set-up: method as in PMID 21207937; conditions: cited from earlier work
[8] = Mus musculus, BALB/3T3, 72 h exposure
[9] = Homo sapiens, MV4-11, 72 h exposure
[10] = Homo sapiens, HCT-116, 72 h exposure
[11] = Homo sapiens, A549, 72 h exposure

| SMILES | IC50 ([1]; 72 h exposure) | IC50 ([2]; 72 h exposure) | IC50 ([3]; 72 h exposure) | IC50 ([4]; 72 h exposure) | IC50 [1, 8] | IC50 [2, 9] | IC50 [3, 10] | IC50 [4, 11] | other results |
| --- | --- | --- | --- | --- | --- | --- | --- | --- | --- |
| N.N.[Cl][Pt][Cl] [cisplatin, reference compound] | 9500 ± 500 nM | 2820 ± 450 nM | 9460 ± 1300 nM | 8960 ± 3330 nM |  |  |  |  |  |
| COC(=O)c1ccc2c(c1)c(NCC(C)(C)CNC(=O)CCC(=O)OC1OC3OC4(C)CCC5C(C)CCC(C1C)C35OO4)c1c3ccccc3nc-1n2C (centres unmarked) [Compound 7e, Artesunate-[methyl 11-(3-amino-2,2-dimethylpropylamino)-5-methyl-5H-indolo[2,3-b]quinoline-2-carboxylate] hybrid] | 5940 ± 1160 nM | 75 ± 1 nM | 2210 ± 687 nM | 5060 ± 911 nM |  |  |  |  |  |
| NCCCNc1nc2ccccc2c2[nH]c3ccccc3c12 [Compound 6, 6-(3-aminopropylamino)-11H-indolo[3,2-c]quinoline] |  |  |  |  | 1050 ± 127 nM | 124 ± 10 nM | 258 ± 107 nM | 172 ± 52 nM |  |
| COC(=O)c1ccc2c(c1)c(NCCCN)c1c3ccccc3nc-1n2C [Compound 4d, methyl 11-(3-aminopropylamino)-5-methyl-5H-indolo[2,3-b]quinoline-2-carboxylate] |  |  |  |  | 768 ± 155 nM |  | 130 ± 14 nM | 649 ± 80 nM | IC50 [5]: 86 ± 20 nM |
| COC(=O)c1ccc2c(c1)c(NCCCNC(=O)CCC(=O)OC1OC3OC4(C)CCC5C(C)CCC(C1C)C35OO4)c1c3ccccc3nc-1n2C (centres unmarked) [Compound 7d, Artesunate-[methyl 11-(3-aminopropylamino)-5-methyl-5H-indolo[2,3-b]quinoline-2-carboxylate] hybride] | 4950 ± 220 nM | 148 ± 15 nM | 1760 ± 329 nM | 3660 ± 535 nM |  |  |  |  |  |
| COc1cccc2c1C(=O)c1c(O)c3c(c(O)c1C2=O)C[C@@](O)(C(=O)CO)C[C@@H]3O[C@H]1C[C@H](N)[C@H](O)[C@H](C)O1 [doxorubicin HCl, reference compound] |  |  |  |  |  | 6 ± 2 nM |  |  |  |
| CC1CCC2C(C)C(OC(=O)CCC(=O)NCC(C)(C)CNc3c4c5ccccc5nc-4n(C)c4ccc(Cl)cc34)OC3OC4(C)CCC1C32OO4 (centres unmarked) [Compound 7b, Artesunate-[N^1-(2-chloro-5-methyl-5H-indolo[2,3-b]quinolin-11-yl)-2,2-dimethjylpropane-1,3-diamine] hybrid] | 6420 ± 996 nM | ~72 nM and 72 nM | 893 ± 397 nM | 4560 ± 2090 nM |  |  |  |  |  |
| C[C@H]1[C@@H](O)O[C@@H]2O[C@@]3(C)CC[C@H]4[C@H](C)CC[C@@H]1[C@@]24OO3 [DHA (2), dihydroartemisinin] |  |  |  |  |  |  |  |  | IC50 [6]: > 20000 nM; IC50 [7]: 1340 ± 1060 nM |
| CC1CCC2C(C)C(OC(=O)CCC(=O)NCCCNc3c4c5ccccc5nc-4n(C)c4ccccc34)OC3OC4(C)CCC1C32OO4 (centres unmarked) [Compound 7a, Artesunate-[N^1-(5-methyl-5H-indolo[2,3-b]quinolin-11-yl)propane-1,3-diamine] hybrid] |  | 286 ± 79 nM |  |  |  |  |  |  |  |
| Cn1c2nc3ccccc3c-2c(NCCCN)c2ccccc21 [Compound 4a, N^1-(5-methyl-5H-indolo[2,3-b]quinolin-11-yl)propane-1,3-diamine] |  |  |  |  |  |  |  |  | IC50 [5]: 66 ± 23 nM |
| CC1CCC2C(C)C(OC(=O)CCC(=O)NCC(C)(C)CNc3c4c5ccccc5nc-4n(C)c4ccc(Br)cc34)OC3OC4(C)CCC1C32OO4 (centres unmarked) [Compound 7c, Artesunate-[N^1-(2-bromo-5-methyl-5H-indolo[2,3-b]quinolin-11-yl)-2,2-dimethylpropane-1,3-diamine] hybrid] |  | 242 ± 31 nM |  |  |  |  |  |  |  |
| CC1CCC2C(C)C(OC(=O)CCC(=O)NCCCNc3nc4ccccc4c4[nH]c5ccccc5c34)OC3OC4(C)CCC1C32OO4 (centres unmarked) [Compound 9] |  |  |  |  | 4980 ± 471 nM | 128 ± 36 nM | 855 ± 235 nM | 1810 ± 516 nM |  |
| CC1CCC2C(C)C(OC(=O)CCC(=O)NCCCNc3c4ccccc4nc4c3[nH]c3ccccc34)OC3OC4(C)CCC1C32OO4 (centres unmarked) [Compound 8, Artesunate-[11-(3-aminopropylamino)-10H-indolo[3,2-b]quinoline] hybrid] |  |  |  |  | 2720 ± 731 nM | 286 ± 127 nM | 557 ± 85 nM | 1330 ± 586 nM |  |
